In US20210393574A1, “USE OF C[…] IN NEURO[…]” (HANYI BIO-TECHNOLOGY (BEIJING) CO., LTD., priority 2018, published 2021):
Where a name gives a salt, the structure may show the parent alone.

Legend:
[1] = tested on: guinea pigs; assay: Impact on the itch-causing effect of histamine phosphate (itch-causing threshold); format: in vivo; conditions: for alleviation of the itch-causing effect of histamine phosphate (in words): administration alone; for itch-causing threshold: oral, 3 consecutive days
[2] = tested on: patients with diagnosed neurodermatitis; assay: Clinical study of cannabinoid compound for neurodermatitis; format: in vivo, human; conditions: 2 weeks; for Cured (number of patients, efficacy index >90%) / effective (number of patients, efficacy index 20-60%) / excellently effective (number of patients, efficacy index 61-89%) / ineffective (number of patients, efficacy index <20%): orally once per day at bedtime, n=10; for clinical efficacy in neurodermatitis (in words): patients, orally once per day
[3] = target: T1, 5-HT1A receptors (Mus musculus, UniProt Q64264); conditions: possibly through activation of 5-HT1A receptors; cited from earlier work
T1 construct: host or cells: mice (in vivo)
T1 sequence (Q64264 1-421): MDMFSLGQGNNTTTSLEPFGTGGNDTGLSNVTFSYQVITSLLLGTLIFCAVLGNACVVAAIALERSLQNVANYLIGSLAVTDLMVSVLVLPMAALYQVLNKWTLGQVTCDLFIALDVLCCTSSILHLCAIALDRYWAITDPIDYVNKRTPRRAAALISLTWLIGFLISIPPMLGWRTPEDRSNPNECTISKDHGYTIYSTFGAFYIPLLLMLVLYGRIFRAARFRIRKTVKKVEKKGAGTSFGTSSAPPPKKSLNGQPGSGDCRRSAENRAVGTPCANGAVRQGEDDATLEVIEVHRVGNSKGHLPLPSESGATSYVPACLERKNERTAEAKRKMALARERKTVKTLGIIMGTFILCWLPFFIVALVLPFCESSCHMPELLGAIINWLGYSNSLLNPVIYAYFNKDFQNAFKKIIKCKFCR

[4] = 200 mg of cannabidiol (Embodiment 1)
[5] = 25 mg/d of doxepin hydrochloride
[6] = 100 mg of tetrahydrocannabinol (Embodiment 3)

C=C(C)[C@@H]1CCC(C)=C[C@H]1c1c(O)cc(CCCCC)cc1O [cannabidiol]
alleviation of the itch-causing effect of histamine phosphate (in words) [1]: significantly alleviates
itch-causing threshold ([1]; 50 mg/day): 90.24 ± 45.98 µL
itch-causing threshold ([1]; 200 mg/day): 96.55 ± 42.34 µL
itch-causing threshold ([1]; 400 mg/day): 117.67 ± 44.67 µL
Cured (number of patients, efficacy index >90%) [2, 4]: 1
effective (number of patients, efficacy index 20-60%) [2, 4]: 6
excellently effective (number of patients, efficacy index 61-89%) [2, 4]: 3
ineffective (number of patients, efficacy index <20%) [2, 4]: 0
clinical efficacy in neurodermatitis (in words) [2]: have clinical efficacy in neurodermatitis
antidepressant activity in mice (in words) [3]: has antidepressant activity in mice

C=C(C)[C@@H]1CCC(C)=C[C@H]1c1c(O)cc(CCC)cc1O [cannabidivarin]
itch-causing threshold ([1]; 40 mg/day): 56.23 ± 45.87 µL
itch-causing threshold ([1]; 80 mg/day): 59.55 ± 39.84 µL
itch-causing threshold ([1]; 100 mg/day): 56.89 ± 34.25 µL

CN(C)CCC(c1ccc(Cl)cc1)c1ccccn1 (stereo not drawn) [chlorphenamine maleate, reference compound]
itch-causing threshold ([1]; 10 mg/day): 127.03 ± 54.05 µL

CN(C)CCC=C1c2ccccc2COc2ccccc21 [doxepin hydrochloride, reference compound]
Cured (number of patients, efficacy index >90%) [2, 5]: 0
effective (number of patients, efficacy index 20-60%) [2, 5]: 3
excellently effective (number of patients, efficacy index 61-89%) [2, 5]: 6
ineffective (number of patients, efficacy index <20%) [2, 5]: 1

CCCCCc1cc(O)c2c(c1)OC(C)(C)[C@@H]1CCC(C)=C[C@@H]21 [tetrahydrocannabinol]
alleviation of the itch-causing effect of histamine phosphate (in words) [1]: significantly alleviates
itch-causing threshold ([1]; 40 mg/day): 90.65 ± 32.08 µL
itch-causing threshold ([1]; 80 mg/day): 92.10 ± 50.78 µL
itch-causing threshold ([1]; 100 mg/day): 94.98 ± 48.96 µL
Cured (number of patients, efficacy index >90%) [2, 6]: 1
effective (number of patients, efficacy index 20-60%) [2, 6]: 6
excellently effective (number of patients, efficacy index 61-89%) [2, 6]: 2
ineffective (number of patients, efficacy index <20%) [2, 6]: 1
clinical efficacy in neurodermatitis (in words) [2]: have clinical efficacy in neurodermatitis

CCCc1cc(O)c2c(c1)OC(C)(C)[C@@H]1CCC(C)=C[C@@H]21 [tetrahydrocannabinovarin]
itch-causing threshold ([1]; 5 mg/day): 50.45 ± 45.67 µL
itch-causing threshold ([1]; 10 mg/day): 56.43 ± 34.18 µL
itch-causing threshold ([1]; 20 mg/day): 55.23 ± 40.92 µL
